Data set [1] deals with P. aeruginosa ATCC 15442. Nature of the data set: MIC, twofold serial microdilution. It is filed as cell-based, Pseudomonas aeruginosa. To be noted: P. aeruginosa ATCC 15442, 18 h, 35 °C. The method, then:
(§1) The antimicrobial activity of the compounds was tested on Gram-positive bacteria (Staphylococcus aureus NCTC 4163, Staphylococcus aureus ATCC 25923, Staphylococcus aureus ATCC 6538, Staphylococcus aureus ATCC 29213, Staphylococcus epidermidis ATCC 12228, Staphylococcus epidermidis ATCC 35984), Gram-negative rods (Escherichia coli ATCC 10538, Escherichia coli ATCC 25922, Pseudomonas aeruginosa ATCC 15442, Pseudomonas aeruginosa ATCC 27863) and yeasts (Candida albicans ATCC 10231, Candida albicans ATCC 90028, Candida parapsilosis ATCC 22019). Hospital methicillin-resistant strains of Staphylococcus aureus and Staphylococcus epidermidis were obtained from the collection of the Department of Pharmaceutical Microbiology, Medical University of Warsaw, Poland.
(§2) Antifungal activities were assessed using Mueller–Hinton agar + 2% glucose and 0.5 µg/mL methylene blue dye medium. Sterile filter paper discs (9 mm diameter, Whatman Number 3 chromatography paper) were dripped with tested compound solutions (in dimethylsulfoxide, DMSO) to load 400 μg of a given compound per disc. Dry discs were placed on the surface of appropriate agar medium. The results (diameter of the growth inhibition zone) were read after 18 h of incubation at 35 °C. Minimal inhibitory concentration (MIC) was tested by the twofold serial microdilution method (in 96-well microtiter plates) using Mueller–Hinton broth medium (Beckton Dickinson) for bacteria or RPMI-1640 medium for Candida species, according to CLSI guidelines. The stock solution of tested agent was prepared in DMSO and diluted in sterile water. […] The final inoculum of all studied microorganisms was 10^5 CFU/ mL^−1 (colony forming units per ml). Minimal inhibitory concentrations (the lowest concentration of a tested agent that prevents visible growth of a microorganism) were read after 18 h (bacteria) or 24 h (yeasts) of incubation at 35 °C.
In general terms: Dilution methods test growth across graded concentrations, often in twofold steps.

The subject of data set [2] is P. aeruginosa ATCC 27853. Nature of the data set: MIC, twofold serial microdilution. It is filed as cell-based, Pseudomonas aeruginosa. To be noted: P. aeruginosa ATCC 27853, 18 h, 35 °C. The protocol:
as §1, §2

The subject of data set [3] is S. aureus 496. Nature of the data set: MIC, hospital MRSA strain. It is filed as cell-based, Staphylococcus aureus. The conditions noted are these: hospital MRSA S. aureus 496. The method, then: as §1, §2
Data set [4] has as its system S. aureus 522. Put plainly: MIC, hospital MRSA strain. The data set is classed as cell-based, Staphylococcus aureus. To be noted: hospital MRSA S. aureus 522. The method, then: as §1, §2
Data set [5] deals with S. aureus 495. Put plainly: MIC, hospital MRSA strain. The data set is classed as cell-based, Staphylococcus aureus. The conditions noted are these: hospital MRSA S. aureus 495. The protocol: as §1, §2
The test system of data set [6] is S. aureus 586. Nature of the data set: MIC, hospital MRSA strain. The data set is classed as cell-based, Staphylococcus aureus. To be noted: hospital MRSA S. aureus 586. The method, then: as §1, §2
The test system of data set [7] is S. aureus 573. Put plainly: MIC, hospital MRSA strain. The conditions noted are these: hospital MRSA S. aureus 573. It is filed as cell-based, Staphylococcus aureus. The protocol:
as §1, §2

Data set [8] concerns S. aureus 537. Put plainly: MIC, hospital MRSA strain. The data set is classed as cell-based, Staphylococcus aureus. The conditions noted are these: hospital MRSA S. aureus 537. The method, then:
as §1, §2

In data set [9] the test system is S. aureus 568. Nature of the data set: MIC, hospital MRSA strain. To be noted: hospital MRSA S. aureus 568. It is filed as cell-based, Staphylococcus aureus. The protocol: as §1, §2
In data set [10] the test system is S. aureus 514. Nature of the data set: MIC, hospital MRSA strain. The conditions noted are these: hospital MRSA S. aureus 514. The data set is classed as cell-based, Staphylococcus aureus. The method, then: as §1, §2
Data set [11] has as its system S. aureus 481. Put plainly: MIC, hospital MRSA strain. To be noted: for MIC: hospital MRSA S. aureus 481. It is filed as cell-based, Staphylococcus aureus. The method, then: as §1, §2
Data set [12] relates to S. aureus 498. Put plainly: MIC, hospital MRSA strain. It is filed as cell-based, Staphylococcus aureus. To be noted: hospital MRSA S. aureus 498. The protocol: as §1, §2
The test system of data set [13] is S. aureus 585. Nature of the data set: MIC, hospital MRSA strain. It is filed as cell-based, Staphylococcus aureus. To be noted: hospital MRSA S. aureus 585. The method, then:
as §1, §2

Data set [14] relates to S. aureus 567. Put plainly: MIC, hospital MRSA strain. It is filed as cell-based, Staphylococcus aureus. The conditions noted are these: hospital MRSA S. aureus 567. The protocol: as §1, §2
The test system of data set [15] is S. aureus 497. Nature of the data set: MIC, hospital MRSA strain. The data set is classed as cell-based, Staphylococcus aureus. To be noted: hospital MRSA S. aureus 497. The protocol:
as §1, §2

Data set [16] deals with S. aureus 572. Put plainly: MIC, hospital MRSA strain. It is filed as cell-based, Staphylococcus aureus. To be noted: for MIC: hospital MRSA S. aureus 572. The protocol: as §1, §2
For data set [17], the system named is Bacillus subtilis M45 (rec−). Put plainly: Bacillus subtilis rec-assay, M45. The data set is classed as cell-based. The conditions noted are these: B. subtilis M45; 256 µg per disc (NOQ 2 µg per disc). The protocol:
(§3) DNA-damaging activity of compounds was tested by rec-assay using two genetically modified Bacillus subtilis strains: M45 (rec^−) and H17 (rec^+). Tested compounds were dissolved in DMSO, and 10 µL of each solution was dripped onto sterile cotton discs (Rotilabo) to load 256 µg of a given compound per 9 mm disc. Discs were placed on the surface nutrient agar plates (Difco), inoculated with 100 µL of bacterial overnight culture and incubated […] at 35 °C. After incubation, the growth inhibition zones were measured. […] Results of the genotoxicity test were estimated after 18 h of incubation at 35 °C by comparing the diameter of the inhibition zone on the B. subtilis M45 (rec^−) strain with that on the B. subtilis H17 (rec^+) strain.

Data set [18] concerns HaCaT (human immortal keratinocyte cell line). Nature of the data set: MTT cytotoxicity assay, HaCaT. The data set is classed as cell-based. The conditions noted are these: HaCaT normal cells, 72 h. The protocol: The human primary (SW480), metastatic (SW620) colon cancer, metastatic prostate cancer (PC3) and human immortal keratinocyte (HaCaT) cell lines were purchased from the American Type Culture Collection (ATCC, Rockville, USA). The cells were cultured in medium according to protocols (MEM for SW480 and SW620, RPMI 1640 for PC3 and DMEM for HaCaT cells) supplemented with 10% fetal bovine serum (FBS), penicillin (100 U/mL) and streptomycin (100 μg/mL) and cultured in 37 °C/ 5% CO2 humidified incubator. The cells were cultured until appropriate confluence was achieved (80–90%). Next, they were harvested by treatment with 0.25% trypsin (Gibco Life Technologies, USA) and used for studies.
Cells without studied compounds in medium were used as a control.
The cell viability was assessed by determination of MTT salt (3-(4,5-dimethylthiazol-2-yl)-2,5-diphenyltetrazolium bromide) conversion by mitochondrial dehydrogenase. MTT assay was performed as previously described. Experiments were repeated three times. Cell viability was presented as a percentage of MTT reduction in the treated cells versus the control cells. Number of viable cells cultured without studied compounds was assumed to be 100%. Decreased relative MTT level means decreased cell viability. Thiourea complexes with the highest cytotoxic potential assessed by MTT determination (with the lowest IC50) were chosen for subsequent assessments of cytotoxicity mechanisms.

For data set [19], the system named is Bacillus subtilis H17 (rec+). Put plainly: Bacillus subtilis rec-assay, H17. It is filed as cell-based. To be noted: B. subtilis H17; 256 µg per disc (NOQ 2 µg per disc). The method, then:
as §3

The results in this text go back to article PMC8584173, “The Cytotoxic Effect of Copper (II) Complexes with Halogenated 1,3-Disubstituted Arylthioureas on Cancer and Bacterial Cells” (International Journal of Molecular Sciences, 2021).

With `O=[N+]([O-])c1cc([N+]2=C(Nc3ccccc3Br)[S][Cu-2]23[S]C(Nc2ccccc2Br)=[N+]3c2ccc(Cl)c([N+](=O)[O-])c2)ccc1Cl` [Compound 1, Copper (II) complex with 1-(2-bromophenyl)-3-(4-chloro-3-nitrophenyl)thiourea], the MIC stood at 128 µg/mL in data set [1]; 128 µg/mL in [2]; 8 µg/mL in [3]; 8 µg/mL in [4]; 8 µg/mL in data set [5]; 4 µg/mL in data set [6]. Besides, the MIC in data set [7], in [8], in data set [9], in data set [10], in data set [11] and in [12] was 8 µg/mL each time. In addition, the minimal inhibitory concentration (MIC) in data set [13], in [14], in data set [15] and in [16] was 8 µg/mL in each case. In addition, the inhibition zone diameter in data set [17] and in data set [19] was 12 mm each time. Moreover, the IC50 in [18] worked out at 110 ± 3.4 µM.

As to `O=[N+]([O-])c1cc([N+]2=C(Nc3cccc(Br)c3)[S][Cu-2]23[S]C(Nc2cccc(Br)c2)=[N+]3c2ccc(Cl)c([N+](=O)[O-])c2)ccc1Cl` [Compound 2, Copper (II) complex with 1-(3-bromophenyl)-3-(4-chloro-3-nitrophenyl)thiourea], the MIC in [1] worked out at 128 µg/mL; in [2] it was 128 µg/mL; in data set [3], 8 µg/mL; in data set [4], 8 µg/mL; in data set [5], 8 µg/mL; in data set [6], 8 µg/mL. For the same compound, the minimum inhibitory concentration (MIC) in data set [7], in data set [8], in [9], in data set [10], in data set [11] and in [12] was 8 µg/mL in each case. Moreover, the MIC in data set [13], in data set [14], in data set [15] and in [16] was 8 µg/mL in each case. The inhibition zone diameter in [17] is given as 19 mm; in data set [19], 17 mm. In [18], this compound gave a concentration for half-maximal inhibition (IC50) of 167 ± 2.3 µM.

In the case of `O=[N+]([O-])c1cc([N+]2=C(Nc3ccc(Br)cc3)[S][Cu-2]23[S]C(Nc2ccc(Br)cc2)=[N+]3c2ccc(Cl)c([N+](=O)[O-])c2)ccc1Cl` [Compound 3, Copper (II) complex with 1-(4-bromophenyl)-3-(4-chloro-3-nitrophenyl)thiourea], the MIC was determined as 128 µg/mL in data set [1]; 128 µg/mL in [2]; 4 µg/mL in [3]; 4 µg/mL in data set [4]; 4 µg/mL in data set [5]; 4 µg/mL in [6]. For the same compound, the minimum inhibitory concentration (MIC) in data set [7], in [8], in data set [9], in [10], in data set [11] and in data set [12] was 4 µg/mL each time. Also, the minimal inhibitory concentration (MIC) in [13], in [14], in [15] and in [16] was 4 µg/mL each time. Moreover, the “times more active than ciprofloxacin” value in [11] (S. aureus 481) and in data set [16] (S. aureus 572) was 64 times in each case. For the same compound, the inhibition zone diameter in [17] and in [19] was 15 mm in each case. In addition, half-maximal inhibition in data set [18] (IC50) required 103 ± 3.2 µM.

As a reminder, the MIC is the lowest concentration found to suppress growth. A high value points to weaker potency. Broadly, the IC50 is the point on the concentration scale where inhibition reaches its midpoint.
